According to US9745355B2, “Binding-site modified lectins and uses thereof” (SmartCells, Inc., priority 2009, dated 2017):

Test system: formaldehyde-stabilized rabbit erythrocytes
Assay: MAC assay (minimum agglutinating concentration)
Assay type: cell-based
Conditions: 2% v/v suspension of formaldehyde-stabilized rabbit erythrocytes
From the text: Enzymol. 83:368-373, 1982. Formaldehyde-treated rabbit erythrocytes, prepared by published procedures (Nowak et al., Biochim. Biophys. […] The MAC was defined as the lectin protein concentration (exclusive of attached chemical compounds) in the highest dilution showing visible agglutination. […] An aliquot of the formaldehyde-treated Rabbit erythrocytes was then pipetted into each well. At low lectin concentrations, there was insufficient lectin to form a network of crosslinked cells and the cells dropped to the bottom of the V-well forming what looks like a dark pin-point circle at the bottom of the plate when viewed from above. However, once the lectin concentration reached the minimum agglutination concentration (MAC), the lectin molecules began crosslinking the saccharide receptors on the erythrocyte surfaces, resulting in a network that cannot settle to the bottom of the V-well forming what looks like a large, opaque, diffuse circle when viewed from above. The lowest concentration that produces the large diffuse circle is the MAC value for a particular formulation.

concanavalin A [Umodified]
MAC: <1 µg/mL
